How the values were obtained:
[1] = system: PD2 (non-proliferating) and PD15 (proliferating) Schwann cells; assay: Schwann cell survival in high glucose media (counts of intact nuclei); format: cell-based, rat; details: IGF-1 1 ng/ml, NAC 10^−7 M, DMD 10^−9 M; for Schwann cell survival: 24 hr of high glucose exposure (40 mM); for number of cells (intact nuclei relative to 5.5 mM glucose control): 40 mM glucose, 2 hr
[2] = system: Schwann cells; assay: NO production by Griess reaction (secreted nitrite in culture medium); format: cell-based, rat; details: for NO2 production: Schwann cells exposed to 40 mM glucose, 24 hr, DMD 10^−9 M, L-NIL 10^−4 M
Description: To determine the role of NO signaling in high glucose induced Schwann cell apoptosis, PD2 and PD15 Schwann cells were cultured, as described, in the presence of 5.5 or 40 mM glucose for 24 hr. Cells exposed to 40 mM glucose were also treated with DMD (10^−9 M), the NOS inhibitor L-NIL (10^−4 M) or an inhibitor of the constitutive, Ca^++-dependent isoform of NOS (cNOS), S-methyl-thiocitruline (SMTC, 10^−4 M). […] PD2 Schwann cells were also treated with increasing amounts of TNF-α […] plus IFN-γ (50, 100, 250, and 500U) for 24 hr to establish a dose-response threshold for the assay.
The Griess reaction, which measures secreted nitrite (NO2) in the culture medium, was used to investigate NO production by Schwann cells.

[3] = Cell rescue with P450 inhibitor Proadifen (animal and cell-culture studies); details: P450 inhibitor Proadifen co-administered
[4] = Stability of deprenyl versus pH of the medium; details: pH about 3-5 versus pH about 7
[5] = system: neuronal and non-neuronal cells; details: several systems; cited from earlier work
[6] = system: cultured cerebellar granule cells; details: cited from earlier work
[7] = Hepatic metabolism after oral administration
[8] = system: PC12 cells; details: cited from earlier work
[9] = system: PD2 Schwann cells; assay: Mitochondrial membrane potential (ΔΨM) by CMTMR confocal imaging; format: cell-based, rat; details: 40 mM glucose, DMD 10^−9 M; for CMTMR fluorescent intensity (confocal images): 6 hr, CsA 10^−7 M, ATR 1 mM; for distribution frequencies of ΔΨM (CMTMR intensity): 6 h, CsA 10^−7, ATR 1 mM
Description: As has been previously reported in a number of models of apoptosis, apoptotic cell death is often preceded by a fall in mitochondrial membrane potential (ΔΨM). […] This dye is preferentially taken up by actively respiring mitochondria where it binds to protein thiol groups within the mitochondrial matrix and is retained following aldehyde fixation. The CMTMR fluorescence intensity therefore represents the highest level of negativity difference (i.e., the greatest ΔΨM) in the mitochondria during the period of dye exposure prior to fixation.
A Leica true confocal scanning (TCS) microscope was used to image the cells. A pinhole aperture of 20 is maintained with constant laser and photo-detector power settings and an excitation filter wavelength of 488 nm and a band-pass emission filter of 600/30 nm. Each image was scanned using an oil-immersion, 100×, 1.4 N.A. objective at 512 by 512 by 8 bits per pixel resolution, background offset of −1 and line averaged 32 times. The confocal images were saved as grey-scale tagged image file format (TIFF) files for analysis and recolourization. The Metamorph™ (Universal Imaging, Ltd.) image capture and analysis system for Windows was used to measure the intensity of CMTMR fluorescence in individual mitochondria. In each mitochondrion, no fewer than two regions were defined by a box measuring 9 pixels square each. The average intensity per pixel within each defined region is measured and automatically logged to a Microsoft Excel spreadsheet for analysis.
At the end of the indicated time point, Schwann cells so treated were incubated with CMTMR to estimate ΔΨM, fixed with 4% paraformaldehyde, and processed for the immunocytochemical co-localization of hexokinase (Type 1) to mitochondria. The fixed coverslips were blocked for 1 hr with 10% normal donkey serum to minimize non-specific binding, and incubated with a mouse monoclonal antibody raised against hexokinase (Type 1; Chemicon) at a dilution of 1:500 overnight at 4° C. Coverslips were washed in PBS and incubated with a Cy5 conjugated donkey anti-mouse (Jackson Immuno Research) at a dilution of 1:250 for 1 hr at room temperature. Coverslips were then washed with PBS and mounted with Aquamount (BDH).

Row | Compound | Schwann cell survival [1] | number of cells (intact nuclei relative to 5.5 mM glucose control) ([1]; non-proliferating cells) | number of cells (intact nuclei relative to 5.5 mM glucose control) ([1]; proliferating cells) | CMTMR fluorescent intensity (confocal images) [9] | also measured
1 | CC(=O)N[C@@H](CS)C(=O)O [NAC, N-acetyl-L-cysteine] | significantly improve Schwann cell survival | significant increase | significant increase | – | –
2 | CC(=N)NCCCC[C@H](N)C(=O)O [L-NIL] | – | – | – | – | stimulation of NO2 release by TNF-α/IFN-γ ([2]; L-NIL added): prevented; NO2 production [2]: slight decrease
3 | C#CCN(C)[C@H](C)Cc1ccccc1 [(−)-deprenyl, R-(−)-N,α-Dimethyl-N-2-propynyl phenethylamine] | – | – | – | – | cell-rescuing activity on administration of Proadifen [3]: reduces the ability of (−)-deprenyl to prevent cell death; stability [4]: more stable at a pH in the range of about 3-5 than at a pH of about 7; apoptotic death of neuronal and non-neuronal cells [5]: reduce the apoptotic death; AraC induced drop in ΔΨM [6]: prevent; metabolites formed by the liver [7]: (−)-desmethyldeprenyl, as well as (−)-methamphetamine and (−)-amphetamine; trophic withdrawal induced drop in ΔΨM [8]: prevent
4 | IGF-1: insulin-dependant growth factor (IGF); anti-apoptotic agent added to high glucose media | significantly improve Schwann cell survival | significant increase | significant increase | – | –
5 | cyclosporin A [CsA] | – | – | – | enhanced brightness | –
6 | C#CCNC(C)Cc1ccccc1 (single isomer, unassigned; (-)) [DMD, (−)-desmethyldeprenyl] | significantly improve Schwann cell survival | significant increase | significant increase | comparable levels of CMTMR fluorescent intensity compared with cells in base media | cell-rescuing activity on administration of Proadifen [3]: does not block the cell-rescuing activity; NO2 production [2]: slight decrease; distribution frequencies of ΔΨM (CMTMR intensity) [9]: restored ΔΨM distributions comparable with the base media
7 | C=C1[C@@H]2CC[C@H]3[C@]4(C)C[C@H](O[C@@H]5O[C@H](CO)[C@@H](OS(=O)(=O)O)[C@H](OS(=O)(=O)O)[C@H]5OC(=O)CC(C)C)C[C@@H](C(=O)O)[C@H]4CC[C@]3(C2)[C@H]1O [ATR, atractyloside] | – | – | – | decreased CMTMR brightness | distribution frequencies of ΔΨM (CMTMR intensity) [9]: pronounced shift to the left
